Measured values taken from patent publication US11739073B2, “Aryl-n-aryl derivatives for treating a RNA virus infection” (ABIVAX, priority 2018, dated 2023).
pEC50, pIC50: −log10 of the molar value.

How the values were obtained:
[1] = tested on: Chikungunya Virus (CHIKV); experiment: Inhibition of Chikungunya virus (CHIKV) production in infected HEK293T cell line (GFP-modified virus, fluorescence); type: cell-based, CHIKV strain of La Réunion outbreak (LR2006-OPY1); conditions: HEK-293T, infected HEK293T cells; for inhibition at 1 µM: compounds at 1 μM, MOI 0.1, 22 h, values above 100 lowered to 100, read-out: % CHIKV Inhibition Mean (n = 2); for pIC50: read-out: IC50 (CHIKV, second round of experiments)
Experimental: The ability of the compounds to inhibit viral replication was assessed with an experiment in which infected cells were treated by compounds of formula (I) at 1 μM. As a positive control for inhibition of Chikungunya, Ribavirin was used. Toxicity of the compounds was assessed in parallel.
Human embryonic kidney cells 293T (HEK293T, CRL-11268) were maintained in Dulbecco's modified Eagle's Medium (DMEM, 31966-021, Thermo Fisher Scientific) supplemented with 10% of fetal bovine serum (FBS), penicillin and streptomycin. After removal of the medium, cells were washed with Ca^2+ and Mg^2+-free salt solution to remove all traces of serum. After aspiration of wash solution, cells were dissociated with 0.25% Trypsin-EDTA solution and incubated 30 s at least in 37° C. incubator. Concentration of cell suspension was determined by an automatic cell counter (EVE, NanoEntek) and, if needed, adjusted to 0.33×10^6 cells/mL with DMEM medium supplemented with 10% FBS.
100 μL of the cell suspension were dispatched in a ViewPlate-96 Black (6005182, PerkinElmer) and in a transparent 96-well cell culture plate (655180, Greiner bio-one). After an incubation for 24 h at 37° C. under 5% of CO2, compounds were added at the proper concentration.
An intermediate dilution was prepared with DMSO (D8418, Sigma) at 2 mM in a 96-well V-bottom microplate from the stock solution:
Mix 1 μL of the 50 mM stock library in 25 μL of DMSO.
Mix 2 μL of the 25 mM stock library in 25 μL of DMSO.
An intermediate dilution was prepared with DMSO (D8418, Sigma) at 25 mM in a 96-well V-bottom microplate from the stock solution:
Mix 2 μL of the 50 mM stock library in 2 μL of DMSO.
Perform serial dilution in 2 μL of DMSO 13 times to reach 0.0015 mM. Proceed as follows in table III:
For both screen and determination of IC50, 1 μL of each solution was added in a 1 mL Masterblock 96 wells (Greiner bio-one, 780261) containing 1 mL of DMEM medium. As a positive control, 5 μL of a 80 mM Ribavirin solution (R9644, Sigma) is added to 1 mL of DMEM. On the other hand, DMSO is used as a negative control.
[…]. Vector Borne Zoonotic Dis. 2006; 6(4)). This modified virus was used to infect cells at MOI 0.1. […]. Medium was removed after 22 h at 37° C. under 5% of CO2 and cells were washed as described above. 60 μL of RIPA buffer (50 mM Tris-HCl pH8, 100 mM NaCl, 1 mM MgCl2, 1% Triton X-100) was added to cells and incubated for at least 20 min before reading fluorescence signal. Pierce 660 nm Protein Assay Reagent (22660, Thermo scientific) was used to normalize fluorescence signal by protein quantity.
CellTiter 96® AQueous One Solution Cell Proliferation Assay (MTS) (G3581, Promega) was used to check the toxicity of the compounds. We added 20 μL of MTS solution and read absorbance at 492 nm one hour later.
Results • A first round of experiments has been performed wherein the results are expressed as inhibition percentage, which is calculated as follows, through the following steps:
1. Fluorescence intensity (FI)/Absorbance 660 nm (A660)=A
This ratio allows considering the infection (GFP virus) to the protein amount.
2. A′=A—background noise of non-infected plate,
3. B=Fluorescence intensity (FI)/Absorbance 660 nm (A660) of infected but non treated plates,
4. C=A′/B, which is then converted as the percentage of infection after treatment, compared to non-treated sample, and subsequently as the […]. For instance, a value of 100 in Table IV here below means that, after treatment, the signal attributed to GFP fluorescence is abolished, which is correlated to the absence of infection.
This value corresponds to the inhibition's percentage.
The following Table IV encompasses said C′ value for some compounds, as calculated above with a mean of 2 experiments, and corresponding standard deviation.
Some values were originally above 100. In these cases, the value has been lowered to 100. This means that some molecules also have an impact on the viability of the cells. […]

DENV-2 = DENV-2 inhibition in A549 cells using Viral ToxGlo assay (cytopathic effect); type: cell-based, DENV-2 strain 16681; conditions: Dengue virus, DENV2, A549, 120 h, read-out: % DENV-2 Inhibition Mean (n = 3)
Experimental: Protocol for Screening Antiviral Compounds for DENV-2 Inhibition and Cytotoxicity Using Viral ToxGlo Assay
A549 cells were maintained in Dulbecco's Modified Eagle Medium (DMEM) supplemented with 10% fetal bovine serum, 100 U/ml penicillin and 100 μg/ml streptomycin. For the purposes of the screening assay they were grown to 90% confluency, trypsinized and recovered. The trypsin was neutralised with cell culture media and cells were centrifuged at 150×g for 5 minutes before discarding the supernatant and resuspending cell pellet in assay media (DMEM supplemented with 2% fetal bovine serum and 100 U/ml penicillin and 100 μg/ml streptomycin). The cells were seeded into 96-well white clear-bottomed cell culture plates at a density of 1.0×10^4 cells/well in 50 μl. For the media/background control column assay media only was added. Cell plates were placed in a humid chamber and incubated overnight at 37° C./5% CO2. After overnight incubation cells were checked for confluency and healthy appearance.
Test compounds were prepared at a final concentration of 10 μM in a maximum DMSO concentration of 1% (final assay concentration maximal 0.1% DMSO) and added to the cell plates in volumes of 10 μl. For cell control and virus control wells the test article solvent only was added. As a positive inhibition control, 7-Deaza-2′-C-methyladenosine was added at 100 μM in 3 wells. Virus (DENV-2 strain 16681) or assay media for cytotoxicity test wells and media/cell control wells was added immediately after test articles at an MOI of 0.5, 40 for 96 well plates respectively. Virus suspension was prepared by thawing DENV-2 frozen stocks and diluting to the required concentration of plaque forming units in assay media.
Cell plates were further incubated inside a humid chamber for 5 days p.i at 37° C./5% CO2. After the incubation period cells were observed under the microscope to check for characteristic cytopathic effect in virus control wells and healthy cells in the cell control wells. After plates were adjusted to room temperature 20 μl Viral ToxGlo (Promega) was added to each well of the 96-well cell plates. Plates were incubated at room temperature for 5 minutes before measuring the luminescence on a spectrophotometer (Envision, PerkinElmer).
DENV-2 inhibition was calculated as percentage of cytopathic effect inhibition relative to the virus control and cytotoxicity as percentage of cell survival relative to cell control wells.

RSV = RSV inhibition in HEp-2 cells using Viral ToxGlo assay (cytopathic effect); type: cell-based, RSV A2; conditions: human respiratory syncytial virus, HEp-2, 72 h
Experimental: Protocol for Screening Antiviral Compounds for RSV Inhibition and Cytotoxicity Using Viral ToxGlo Assay
HEp-2 cells were maintained in Eagle's minimum essential medium (EMEM) with Earle's BSS adjusted to contain 2 mM L-glutamine, 10% fetal bovine serum, 100 U/ml penicillin and 100 μg/ml streptomycin. For the purposes of the screening assay they were grown to 90% confluency, trypsinized and recovered. The trypsin was neutralised with cell culture media and cells were centrifuged at 150×g for 5 minutes before discarding the supernatant and resuspending cell pellet in assay media (EMEM with Earle's BSS adjusted to contain 2 mM L-glutamine, 2% fetal bovine serum and 100 U/ml penicillin and 100 μg/ml streptomycin). The cells were seeded into white clear-bottomed cell culture plates at a density of 1.5×10^4 cells/well in 50 μl and 4×10^3 cells/well in 25 μl for 96 well plates and 384 well plates respectively. For the media/background control column assay media only was added. Cell plates were placed in a humid chamber and incubated overnight at 37° C./5% CO2. After overnight incubation cells were checked for confluency and healthy appearance.
Test articles were made up at 10× test concentration in a maximum DMSO concentration of 10% (final assay concentration maximal 1% DMSO) and added to the cell plates in volumes of 10 μl for 96 well plates and 5 μl for 384 well plates. For cell control and virus control wells the test article solvent only was added. Virus or assay media for cytotoxicity test wells and media/cell control wells was added immediately after test articles at an MOI of 0.5, 40 or 20 μl for 96 and 384 well plates respectively. Virus suspension was prepared by thawing RSV A2 frozen stocks and diluting to the required concentration of plaque forming units in assay media on ice.
Cell plates were further incubated inside a humid chamber for 72 h p.i at 37° C./5% CO2. After the incubation period cells were observed under the microscope to check for characteristic cytopathic effect in virus control wells and healthy cells in the cell control wells. After plates were adjusted to room temperature 20/40 μl Viral ToxGlo (Promega) was added to each well of the 384/96 well cell plates. Plates were incubated at room temperature, protected from light on a plate rocker for 20 minutes before measuring the luminescence on a spectrophotometer (Biotek Synergy HTX).
RSV inhibition was calculated as percentage of cytopathic effect inhibition relative to the virus control and cytotoxicity as percentage of cell survival relative to cell control wells. This allowed EC50 values to be calculated for each test article where a virus inhibition or cytotoxic dose response was identified.

Compound	inhibition at 1 µM [1]	pIC50 [1]	inhibition at 10 µM (DENV-2)	pEC50 (RSV)
CC(C)CCNC(=O)c1cccc(Nc2ccc(/C=C/c3ccccn3)cc2)c1 [Compound 1, (E)-N-isopentyl-3-((4-(2-(pyridin-2-yl)vinyl)phenyl)amino)benzamide]	98%			
CC(C)CCNC(=O)c1ccc(Nc2ccc(/C=C/c3ccccn3)cc2)cc1 [Compound 2, (E)-N-isopentyl-4-((4-(2-(pyridin-2-yl)vinyl)phenyl)amino)benzamide]	74%			
O=C(NCCC1CCCCC1)c1cccc(Nc2ccc(/C=C/c3ccccn3)cc2)c1 [Compound 4, (E)-N-(2-cyclohexylethyl)-3-((4-(2-(pyridin-2-yl)vinyl)phenyl)amino)benzamide]	99%			
O=C(NCCC1CCCC1)c1cccc(Nc2ccc(/C=C/c3ccccn3)cc2)c1 [Compound 6, (E)-N-(2-cyclopentylethyl)-3-((4-(2-(pyridin-2-yl)vinyl)phenyl)amino)benzamide]	98%	6.30 to 6.70		
O=C(NCCC1CCC1)c1cccc(Nc2ccc(/C=C/c3ccccn3)cc2)c1 [Compound 9, (E)-N-(2-cyclobutylethyl)-3-((4-(2-(pyridin-2-yl)vinyl)phenyl)amino)benzamide]	98%			
Cc1cc(/C=C/c2ccccn2)ccc1Nc1cccc(C(=O)NCCC2CCCC2)c1 [Compound 12, (E)-N-(2-cyclopentylethyl)-3-((2-methyl-4-(2-(pyridin-2-yl)vinyl)phenyl)amino)benzamide]		6.70 to 9.00	96%	5.60 to 6.43
Cc1cc(/C=C/c2ccccn2)ccc1Nc1cccc(C(=O)NCCC(C)C)c1 [Compound 13, (E)-N-isopentyl-3-((2-methyl-4-(2-(pyridin-2-yl)vinyl)phenyl)amino)benzamide]		6.70 to 9.00	86%	5.60 to 6.43
CC(C)CCNC(=O)c1cccc(Nc2ccc(C(=O)Nc3ccccn3)cc2)c1 [Compound 14, N-isopentyl-3-((4-(pyridin-2-ylcarbamoyl)phenyl)amino)benzamide]	93%	6.30 to 6.70		
O=C(NCCC1CCCC1)c1cccc(Nc2ccc(C(=O)Nc3ccccn3)cc2)c1 [Compound 15, N-(2-cyclopentylethyl)-3-((4-(pyridin-2-ylcarbamoyl)phenyl)amino)benzamide]	98%	6.30 to 6.70	107%	
O=C(NCCC1CCCCC1)c1cccc(Nc2ccc(C(=O)Nc3ccccn3)cc2)c1 [Compound 16, N-(2-cyclohexylethyl)-3-((4-(pyridin-2-ylcarbamoyl)phenyl)amino)benzamide]	100%	6.30 to 6.70		5.93
CC(C)CCNC(=O)c1cccc(Nc2ccc(NC(=O)c3ccccn3)cc2)c1 [Compound 32, N-(4-((3-(isopentylcarbamoyl)phenyl)amino)phenyl)picolinamide]	99%	6.30 to 6.70		
O=C(NCCC1CCCC1)c1cccc(Nc2ccc(NC(=O)c3ccccn3)cc2)c1 [Compound 35, N-(4-((3-((2-cyclopentylethyl)carbamoyl)phenyl)amino)phenyl)picolinamide]	100%	6.30 to 6.70	66%	
O=C(Nc1ccccc1)c1ccc(Nc2cccc(OCCCC3CCCCC3)c2)c(C2CC2)c1 [Compound 115, 4-{[3-(3-cyclohexylpropoxy)phenyl]amino}-3-cyclopropyl-N-phenylbenzamide]				6.64
